In US7482308B2, “Difluoromethanesulfonyl anilide derivatives useful as herbicides” (Bayer CropScience AG, priority 2004, dated 2009):

Assays:
Format in all cases: in vivo
[1] = system: Cyperus serotinus Rottboel; assay: Test for residual effectiveness against paddy field weeds (Test Example 2); conditions: 60 g ai/ha; period of maintaining herbicidal effect of higher than 80%
Source text: (§1) In a green house a 1000 cm^2 pot was filled with paddy field soil and water was poured to a depth of about 2 to 3 cm. A prescribed, diluted solution of the above-mentioned Test Example 1, was applied to the surface of water. After the prescribed time after the treatment (just after treatment, 1 week, 2 weeks, 3 weeks, 4 weeks, 5 weeks, 6 weeks and 7 weeks after treatment), seeds or tubers of the weeds to be tested Scirpus juncoides Roxburgh, Monochoria vaginalis Presi, annual broad-leaved weeds (Lindernia procumbens Philcox, Rotala indica Koehne, Elatine triandra Schk, Ammannia multiflora Roxb., etc.), Cyperus serotinus Rottboel and Sagittaria pygmaea Miq. were inoculated. Three weeks after the inoculation each herbicidal effect was examined.
(§2) The evaluation of the residual effectiveness was shown as the period (number of weeks) of maintaining herbicidal effect of higher than 80%, after the evaluation of herbicidal effect had been conducted in the similar manner as the above-mentioned Test Example 1.

[2] = system: Scirpus juncoides Roxburgh; assay: as above; conditions: 60 g ai/ha; period of maintaining herbicidal effect of higher than 80%
Source text: as §1, §2

Sagittaria pygmaea Miq. = assay: as above; conditions: 60 g ai/ha; period of maintaining herbicidal effect of higher than 80%
Source text: as §1, §2

[3] = system: annual broad-leaved weeds; assay: as above; conditions: 60 g ai/ha; period of maintaining herbicidal effect of higher than 80%
Source text: as §1, §2

[4] = system: Monochoria vaginalis Presi; assay: as above; conditions: 60 g ai/ha; period of maintaining herbicidal effect of higher than 80%
Source text: as §1, §2

[5] = system: sulfonylurea resistant Elatine triandra Schk (collected in Kazo area, Saitama Pref.); assay: Test for herbicidal effect against sulfonylurea resistant weeds (Test Example 3); conditions: applied at beginning of emergence, examined 3 weeks after treatment
Source text: (§3) In a green house seeds of Scirpus juncoides Roxburgh (collected in Iwamizawa area, Hokkaido), Lindernia procumbens Philcox (collected in Kazo area, Saitama Pref.), Lindernia procumbens Philcox (collected in Higashi-Hiroshima area, Hiroshima Pref.), Elatine triandra Schk (collected in Kazo area, Saitama Pref.), all of which were confirmed as sulfonylurea resistant, were inoculated in a 20 cm^2 cup filled with paddy field soil. Then water was poured to a depth of about 2 to 3 cm. At the beginning of emergence of each weed, a prescribed, diluted solution of the formulation of each active compound prepared in the same manner as the above-mentioned Test Example 1 was applied to the surface of water. After the treatment the water depth of 3 cm was maintained and the herbicidal effect was examined after 3 weeks from the treatment. The evaluation of the herbicidal effect was conducted in the same manner as the above-mentioned Test Example 1. In case of showing higher than 80% herbicidal effect, it is evaluated as practical as herbicide. In consideration of the possibility that the biological properties including herbicide resistance of the plants grown in different areas might be different, sulfonylurea resistant Lindernia procumbens Philcox collected in two different areas were used in the present tests. The study results with the compounds No. 1, 3, 11 and 17 and the comparative compound No. C-1 as specific examples are shown in the following Table 6.

[6] = system: sulfonylurea resistant Lindernia procumbens Philcox (collected in Kazo area, Saitama Pref.); assay: as above; conditions: applied at beginning of emergence, examined 3 weeks after treatment
Source text: as §3

[7] = system: sulfonylurea resistant Lindernia procumbens Philcox (collected in Higashi-Hiroshima area, Hiroshima Pref.); assay: as above; conditions: applied at beginning of emergence, examined 3 weeks after treatment
Source text: as §3

[8] = system: sulfonylurea resistant Scirpus juncoides Roxburgh (collected in Iwamizawa area, Hokkaido); assay: as above; conditions: applied at beginning of emergence, examined 3 weeks after treatment
Source text: as §3

[9] = system: Cyperus serotinus Rottboel; assay: Test for herbicidal effect against paddy field weeds (Test Example 1); conditions: examined 3 weeks after treatment
Experimental: (§4) Preparation of Formulation of the Active Compound
(§5) • Carrier: DMF 5 parts by weight • Emulsifier: Benzyloxy polyglycol ether 1 part by weight
(§6) A formulation of an active compound is obtained as an emulsifiable concentrate by mixing 1 part by weight of the active compound with the above-mentioned amount of the carrier and emulsifier. A prescribed amount of the formulation is diluted with water.
(§7) In a green house seeds or tubers of Scirpus juncoides Roxburgh, Monochoria vaginalis Presi, annual broad-leaved weeds (Lindemia procumbens Philcox, Rotala indica Koehne, Elatine triandra Schk, Ammannia multiflora Roxb., etc.), Cyperus serotinus Rottboel were inoculated in a 500 cm^2 pot filled with paddy field soil. Then water was poured to a depth of about 2-3 cm. Five days and 13 days after inoculation, a prescribed, diluted solution of the formulation of each active compound, prepared according to the aforementioned preparation method, was applied to the surface of water. After the treatment the water depth of 3 cm was maintained and the herbicidal effect was examined after 3 weeks from the treatment.
(§8) The herbicidal effect was rated 100% in the case of complete death and as 0% in the case of no herbicidal effect. In case of showing higher than 80% herbicidal effect, it is evaluated as practical as herbicide.

[10] = system: Scirpus juncoides Roxburgh; assay: as above; conditions: examined 3 weeks after treatment
Experimental: as §4, §5, §6, §7, §8

[11] = system: annual broad-leaved weeds; assay: as above; conditions: examined 3 weeks after treatment
Experimental: as §4, §5, §6, §7, §8

[12] = system: Monochoria vaginalis Presi; assay: as above; conditions: examined 3 weeks after treatment
Experimental: as §4, §5, §6, §7, §8

[13] = system: transplanted rice (var. Nipponbare); assay: Test for phytotoxicity to transplanted rice (Test Example 4); conditions: 60 g ai/ha, application 5 days after transplanting, examined 2 weeks after treatment
Experimental: The phytotoxicity to transplanted rice was evaluated under the conditions with more shallow planting depths than usual depth of 2 cm, simulating the severe condition for herbicides to cause rice injury in the paddy. In a greenhouse 2 to 2.5 leaf-stage of rice (var. Nipponbare) was transplanted at three different depths, in a 1000 cm^2 pot filled with paddy field soil. Then water was poured to a depth of about 2 to about 3 cm. Five days after transplanting, a prescribed, diluted solution of the formulation of each active compound, prepared in the same manner as the above-mentioned Test Example 1, was applied to the surface of water. After the treatment the water depth of 3 cm was maintained and the rice injury was examined after 2 weeks from the treatment. The rice injury was rated 100% in the case of complete death and as 0% in the case of no injury. In case of showing less than 20% injury, it is evaluated as practical as rice herbicide.

[14] = 15 g ai/ha, application 5 days after inoculation
[15] = 15 g ai/ha, application 13 days after inoculation
[16] = 30 g ai/ha, application 5 days after inoculation
[17] = 30 g ai/ha, application 13 days after inoculation

COc1cc(OC)nc(C(O)c2cccc(F)c2NS(=O)(=O)C(F)(F)F)n1 (stereo not shown) [Compound C-1, reference compound]
1 week: period showing sufficient residual herbicidal effectiveness Cyperus serotinus [1] | period showing sufficient residual herbicidal effectiveness Sagittaria pygmaea (Sagittaria pygmaea Miq.)
40%: herbicidal effect against sulfonylurea resistant weeds Lindernia procumbens (collected in Kazo area, Saitama Pref.) ([6]; 30 g ai/ha) | herbicidal effect broad-leaved weeds [11, 15]
70%: herbicidal effect against sulfonylurea resistant weeds Elatine triandra (collected in Kazo area, Saitama Pref.) ([5]; 60 g ai/ha) | herbicidal effect against sulfonylurea resistant weeds Scirpus juncoides (collected in Iwamizawa area, Hokkaido) ([8]; 60 g ai/ha) | herbicidal effect Cyperus serotinus [9, 14] | herbicidal effect Scirpus juncoides [10, 14] | herbicidal effect Scirpus juncoides [10, 17]
60%: herbicidal effect against sulfonylurea resistant weeds Elatine triandra (collected in Kazo area, Saitama Pref.) ([5]; 30 g ai/ha) | herbicidal effect against sulfonylurea resistant weeds Lindernia procumbens (collected in Kazo area, Saitama Pref.) ([6]; 60 g ai/ha) | herbicidal effect against sulfonylurea resistant weeds Scirpus juncoides (collected in Iwamizawa area, Hokkaido) ([8]; 30 g ai/ha) | herbicidal effect Cyperus serotinus [9, 15] | herbicidal effect Cyperus serotinus [9, 17] | herbicidal effect Scirpus juncoides [10, 15] | herbicidal effect broad-leaved weeds [11, 17] | herbicidal effect Monochoria vaginalis [12, 14] | herbicidal effect Monochoria vaginalis [12, 17]
50%: herbicidal effect against sulfonylurea resistant weeds Lindernia procumbens (collected in Higashi-Hiroshima area, Hiroshima Pref.) ([7]; 30 g ai/ha) | herbicidal effect broad-leaved weeds [11, 14] | herbicidal effect Monochoria vaginalis [12, 15]
80%: herbicidal effect against sulfonylurea resistant weeds Lindernia procumbens (collected in Higashi-Hiroshima area, Hiroshima Pref.) ([7]; 60 g ai/ha) | herbicidal effect Cyperus serotinus [9, 16] | herbicidal effect Scirpus juncoides [10, 16] | herbicidal effect broad-leaved weeds [11, 16] | herbicidal effect Monochoria vaginalis [12, 16]
20%: phytotoxicity to transplanted rice depth 2 cm ([13]; planting depth 2 cm)
35%: phytotoxicity to transplanted rice depth 0.5 cm ([13]; planting depth 0.5 cm)
<1 week: period showing sufficient residual herbicidal effectiveness broad-leaved weeds [3] | period showing sufficient residual herbicidal effectiveness Monochoria vaginalis [4]
2 week: period showing sufficient residual herbicidal effectiveness Scirpus juncoides [2]
